# Tests used:
# [1] = Serum binding determination by ultrafiltration and HPLC; format: in vitro ADME; conditions: human, serum, % of compound bound to serum as determined by HPLC
# Experimental: The more accurate measurement of binding of selected cephalosporin compounds was performed using HPLC as described below. […] Serum is placed in a shaking water bath preheated to 37 ± 2 °C for 5 to 10 minutes to heat serum to 37 °C. Serum pH is measured and recorded, while serum is 37 °C using pH paper. Measurements are taken twice, 3 minutes apart. […] After blowing for several minutes, serum is heated to 37 °C and measurements are taken twice, 3 minutes apart using pH paper to determine the pH. Store at 4 °C. The serum is stable for 7 days. Always check the pH before each use. • 2. Before any centrifugation, the centrifuge temperature must be adjusted to 25 ± 2 °C. Preheat the centrifuge by spinning for 45 minutes at the same speed to be used in the assay (1900 g) with two tubes of water in the rotor and the temperature set to 25 °C. When the centrifuge stops immediately check the temperature of the tubes of water with a calibrated thermometer. The temperature of the tubes of water must be 25 ± 2 °C. […] Continue spinning and measuring the temperature and adjusting the setting until the temperature is 25 ± 2 °C. • 3. Prepare blank ultrafiltrate by pipetting blank pH 7.4 serum into an Amicon Centrifree Micropartition devices, centrifuge: fixed angle rotor, 1900 g, 25 °C for 20 minutes. Heat ultrafiltrate in a shaking water bath preheated to 37 °C. Measure ultrafiltrate pH and adjust to the pH of the serum (7.4 ± 0.2). • 4. Pipette 190 ul of blank ultrafiltrate into a set of labeled 1.7 mL polypropylene microfuge tubes for 3 of each level. Pipette 10 µL of the appropriate standard stock 50, 200, 1000 µg/mL to make standards 2.5, 10, and 50 µg/mL respectively. Vortex each tube well. One set of the standard samples are mixed 1:1 with 0.2 M acetic acid and injected onto the HPLC (MSTD). These samples are the membrane standards and will be used to compare to the other standards. Pipette 190 ul of ultrafiltrate and spike with 10 ul of whatever solution (e.g. water) the standards are prepared in to make the zero standard. • 5. Pipette 475 µL of blank heated pH 7.4 serum into a set of labeled 1.7 mL polypropylene microfuge tubes for 2 of each (Serum A and Serum B). Pipette 25 µL of the 1000 µg/mL standard stock into each tube, vortex each tube well to make serum standard 50 µg/mL. Remove 100 µL of serum and deproteinate with 200 µL 4% TCA while vortexing to make serum time 0 (serum 50, T0). Place serum tubes in a shaking water bath at 37 °C for 10 minutes. Pipet 100 µL of serum out and deproteinate with 200 µL 4% TCA, to make serum time 10 min (serum 50, T10). Pipet 200 ul serum standard 50 µg/mL into an ultrafiltration device, which is not treated with TCA, to determine free drug in samples (Rat Serum 50). • 6. Transfer serum and standard samples to labeled Amicon Centrifree Micropartition filters, and centrifuge: 1900 g, 25 °C for 10 minutes. The extracted serum samples (T0 and T 10) are spun down and supernatant is loaded into HPLC vials. • 7. 100 µL of ultrafiltrate sample and 100 µL of 0.2 M acetic acid were mixed together to stabilize the compound in ultrafiltrate. • 8. Transfer entire stabilized ultrafiltrate solution to a labeled autoinjector HPLC vial cap with Teflon septa, and inject on HPLC.
# Peak height or area is used in a weighted linear regression.
# High levels of binding to human serum proteins limits the concentration of compound available for antibacterial activity in the body.
# [2] = tested on: S. aureus Col8A(Meth^S)(lac^-); test: Broth microdilution MIC (NCCLS); format: cell-based; conditions: Staphylococcus aureus, Mueller-Hinton Broth, 24 h at 35 °C
# Outline: (§1)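 Compounds were serially diluted 2-fold in Mueller-Hinton broth, and bacteria were added at a final 5 x 10^5 CFU/mL from early-log-phase cultures. Plates were incubated 24 h at 35 °C. MIC was the lowest drug concentration preventing growth, read at 650 nm and visually.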
# [3] = tested on: S. aureus PC1 (Meth^S)(lac^+); test: Broth microdilution MIC (NCCLS); format: cell-based; conditions: Staphylococcus aureus; S. aureus PC1 (Meth^S)(lac^+); Mueller-Hinton Broth, 24 h at 35 °C; read-out: MIC
# Outline: as §1
SMILES,fraction unbound [1],MIC [2],MIC [3]
"NCCSCc1ncccc1SC1=C(C(=O)O)N2C(=O)[C@@H](NC(=O)/C(=N\O)c3nc(N)sc3Cl)[C@H]2SC1 [Cmpd 1, (7R)-7-[(Z)-2-(2-amino-5-chlorothiazol-4-yl)-2-(hydroxyimino)acetamido]-3-[2-(2-aminoethylthiomethyl)pyrid-3-ylthio]-3-cephem-4-carboxylic acid]",0.1,–,–
"NCCSCc1ncccc1SC1=C(C(=O)O)N2C(=O)[C@@H](NC(=O)/C(=N\O)c3nsc(N)n3)[C@H]2SC1 [Cmpd 2, (7R)-7-[(Z)-2-(5-amino-1,2,4-thiadiazol-3-yl)-2-(hydroxyimino)acetamido]-3-[2-(2-aminoethylthiomethyl)pyrid-3-ylthio]-3-cephem-4-carboxylic acid]",≥ 0.2,–,–
"N=C(N)NCCSCc1ncccc1SC1=C(C(=O)O)N2C(=O)[C@@H](NC(=O)/C(=N\O)c3nsc(N)n3)[C@H]2SC1 [Cmpd 2-R, (7R)-7-[(Z)-2-(5-amino-1,2,4-thiadiazol-3-yl)-2-(hydroxyimino)acetamido]-3-[2-(2-guanidinoethylthiomethyl)pyrid-3-ylthio]-3-cephem-4-carboxylic acid]",≥ 0.2,0.25 µg/mL,0.13 µg/mL
"N=C(N)NCCSCc1ncccc1SC1=C(C(=O)O)N2C(=O)[C@@H](NC(=O)/C(=N\O)c3nc(N)sc3Cl)[C@H]2SC1 [Cmpd 2-S, (7R)-7-[(Z)-2-(2-amino-5-chlorothiazol-4-yl)-2-(hydroxyimino)acetamido]-3-[2-(2-guanidinoethylthiomethyl)pyrid-3-ylthio]-3-cephem-4-carboxylic acid]",0.17,0.125 µg/mL,0.13 µg/mL
"NCCSCc1ccncc1SC1=C(C(=O)O)N2C(=O)[C@@H](NC(=O)/C(=N\O)c3nc(N)sc3Cl)[C@H]2SC1 [Cmpd 3, (7R)-7-[(Z)-2-(2-amino-5-chlorothiazol-4-yl)-2-(hydroxyimino)acetamido]-3-[4-(2-aminoethylthiomethyl)pyrid-3-ylthio]-3-cephem-4-carboxylic acid]",0.1,–,–
